Assay results taken from patent US9695155B2, “Herbicidal substituted pyrimidinyloxy benzene compounds” (E. I. DU PONT DE NEMOURS AND COMPANY, priority 2013, dated 2017).

Assays:
kochia = assay: Test A preemergence; format: in vivo, Kochia scoparia
How it was run: (§1)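 Compounds in non-phytotoxic solvent with surfactant applied as soil spray preemergence, or postemergence to plants 2-10 cm at one- to two-leaf stage, in loam/sand. After approximately 10 days in greenhouse, injury rated visually versus untreated controls, 0 (no effect) to 100 (complete control).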

blackgrass = assay: Test A postemergence; format: in vivo, Alopecurus myosuroides; conditions: 0 to 100 scale where 0 is no effect and 100 is complete control
How it was run: as §1

galium = assay: Test A postemergence; format: in vivo, Galium aparine; conditions: 0 to 100 scale where 0 is no effect and 100 is complete control
How it was run: as §1

sedge, umbrella = assay: Test C flooded paddy test; format: in vivo, Cyperus difformis; conditions: Flood, scale 0 to 100 (0 no effect, 100 complete control), 13 to 15 days
How it was run: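 Flooded 3 cm over soil; compound into paddy water; depth kept constant. Greenhouse 13–15 d.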

corn = assay: Test E preemergence; format: in vivo, Zea mays; conditions: for Corn plant response rating: scale 0 to 100 (0 no effect, 100 complete control)
How it was run: (§2)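 Response was scored visually on a 0-100 scale (100 = complete control) versus controls after 14 to 21 days in the greenhouse. Test chemicals, formulated with surfactant in a non-phytotoxic solvent mixture, had been applied preemergence to seeds in silt loam soil or postemergence to 1- to 4-leaf plants in potting medium.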

soybean = assay: Test E preemergence; format: in vivo, Glycine max; conditions: for Soybean plant response rating: 62 g ai/ha, scale 0 to 100 (0 no effect, 100 complete control)
How it was run: as §2

velvetleaf = assay: Test E preemergence; format: in vivo, Abutilon theophrasti; conditions: for Velvetleaf plant response rating: scale 0 to 100 (0 no effect, 100 complete control)
How it was run: as §2

palmer pigweed = assay: Test E preemergence; format: in vivo, Amaranthus palmeri; conditions: for Pigweed, Palmer plant response rating: scale 0 to 100 (0 no effect, 100 complete control)
How it was run: as §2

large (Lg) crabgrass = assay: Test E preemergence; format: in vivo, Digitaria sanguinalis; conditions: for Crabgrass, Large plant response rating: scale 0 to 100 (0 no effect, 100 complete control)
How it was run: as §2

fall panicum = assay: Test E preemergence; format: in vivo, Panicum dichotomiflorum; conditions: for Panicum, Fall plant response rating: scale 0 to 100 (0 no effect, 100 complete control)
How it was run: as §2

ragweed = assay: Test E preemergence; format: in vivo, Ambrosia elatior; conditions: for Ragweed plant response rating: scale 0 to 100 (0 no effect, 100 complete control)
How it was run: as §2

barnyardgrass = assay: Test E preemergence; format: in vivo, Echinochloa crus-galli; conditions: for Barnyardgrass plant response rating: scale 0 to 100 (0 no effect, 100 complete control)
How it was run: as §2

dayflower = assay: Test E preemergence; format: in vivo, Commelina virginica; conditions: for Dayflower, VA plant response rating: scale 0 to 100 (0 no effect, 100 complete control)
How it was run: as §2

morningglory = assay: Test E preemergence; format: in vivo, Ipomoea coccinea; conditions: for Morningglory plant response rating: scale 0 to 100 (0 no effect, 100 complete control)
How it was run: as §2

nightshade = assay: Test E preemergence; format: in vivo, Solanum ptycanthum; conditions: for Nightshade plant response rating: 62 g ai/ha, scale 0 to 100 (0 no effect, 100 complete control)
How it was run: as §2

[1] = 125 g ai/ha, scale 0 to 100, 0 no effect, 100 complete control
[2] = 250 g ai/ha, scale 0 to 100, 0 no effect, 100 complete control
[3] = preemergence, 125 g ai/ha, scale 0 to 100, 0 no effect, 100 complete control
[4] = 8 g ai/ha, scale 0 to 100, 0 is no effect, 100 is complete control

With `CCOc1cnn(-c2c(C#N)cccc2Oc2ncc(F)cn2)c1` [Compound 89] the “Plant response rating, Kochia” value (kochia; 125 g ai/ha, 0 to 100 scale where 0 is no effect and 100 is complete control) was 90, the “Kochia plant response rating” value (kochia; 500 g ai/ha, 0 to 100 scale, 0 no effect, 100 complete control, approx. 10 days) was 100 and the “Plant response rating, Blackgrass” value (blackgrass; 125 g ai/ha) was 40. For the same molecule, the “Plant response rating, Blackgrass” value (blackgrass; 500 g ai/ha) was 90, the “Plant response rating, Galium” value (galium; 125 g ai/ha) was 90 and the “Plant response rating, Galium” value (galium; 500 g ai/ha) was 90. For the same molecule, the “Plant response rating, Sedge, Umbrella” value (sedge, umbrella; 62 g ai/ha) was 0, the “Plant response rating, Sedge, Umbrella” value (sedge, umbrella; 125 g ai/ha) was 50 and the “Plant response rating, Sedge, Umbrella” value (sedge, umbrella; 250 g ai/ha) was 70. The “Corn plant response rating” value (corn; 31 g ai/ha) was 0, the “Corn plant response rating” value (corn; 62 g ai/ha) was 0 and the “Plant response rating, Corn” value (corn; [1]) was 30. For the same molecule, the “Plant response rating, Corn” value (corn; [2]) was 70, the “Soybean plant response rating” value (soybean) was 30 and the “Plant response rating, Soybean” value (soybean; [1]) was 60. The “Plant response rating, Soybean” value (soybean; [2]) was 80, the “Velvetleaf plant response rating” value (velvetleaf; 31 g ai/ha) was 20 and the “Velvetleaf plant response rating” value (velvetleaf; 62 g ai/ha) was 65. The “Plant response rating, Velvetleaf” value (velvetleaf; [1]) was 90, the “Plant response rating, Velvetleaf” value (velvetleaf; [2]) was 100 and the “Pigweed, Palmer plant response rating” value (palmer pigweed; 31 g ai/ha) was 0. For the same molecule, the “Pigweed, Palmer plant response rating” value (palmer pigweed; 62 g ai/ha) was 0, the “Plant response rating, Pigweed, Palmer” value (palmer pigweed; [1]) was 40 and the “Plant response rating, Pigweed, Palmer” value (palmer pigweed; [2]) was 100. For the same molecule, the “Crabgrass, Large plant response rating” value (large (Lg) crabgrass; 31 g ai/ha) was 35, the “Crabgrass, Large plant response rating” value (large (Lg) crabgrass; 62 g ai/ha) was 85 and the “Plant response rating, Crabgrass, Large” value (large (Lg) crabgrass; [1]) was 100. For the same molecule, the “Plant response rating, Crabgrass, Large” value (large (Lg) crabgrass; [2]) was 100, the “Panicum, Fall plant response rating” value (fall panicum; 31 g ai/ha) was 0 and the “Panicum, Fall plant response rating” value (fall panicum; 62 g ai/ha) was 65. The “Plant response rating, Panicum, Fall” value (fall panicum; [1]) was 100, the “Plant response rating, Panicum, Fall” value (fall panicum; [2]) was 100 and the “Ragweed plant response rating” value (ragweed; 31 g ai/ha) was 65. For the same molecule, the “Ragweed plant response rating” value (ragweed; 62 g ai/ha) was 80, the “Plant response rating, Ragweed” value (ragweed; [1]) was 80 and the “Plant response rating, Ragweed” value (ragweed; [2]) was 90. The “Barnyardgrass plant response rating” value (barnyardgrass; 31 g ai/ha, preemergence) was 0, the “Plant response rating, Barnyardgrass” value (barnyardgrass; Preemergence, 62 g ai/ha, scale 0 to 100, 0 no effect, 100 complete control) was 20 and the “Plant response rating, Barnyardgrass” value (barnyardgrass; [3]) was 70. The “Plant response rating, Barnyardgrass” value (barnyardgrass; preemergence, 250 g ai/ha, scale 0 to 100, 0 no effect, 100 complete control) was 98, the “Dayflower, VA plant response rating” value (dayflower; 31 g ai/ha) was 0 and the “Dayflower, VA plant response rating” value (dayflower; 62 g ai/ha) was 60. For the same molecule, the “Plant response rating, Dayflower, VA” value (dayflower; [1]) was 80, the “Plant response rating, Dayflower, VA” value (dayflower; [2]) was 98 and the “Morningglory plant response rating” value (morningglory; 31 g ai/ha) was 30. For the same molecule, the “Morningglory plant response rating” value (morningglory; 62 g ai/ha) was 65, the “Plant response rating, Morningglory” value (morningglory; [1]) was 75 and the “Plant response rating, Morningglory” value (morningglory; [2]) was 100. For the same molecule, the “Nightshade plant response rating” value (nightshade) was 80, the “Plant response rating, Nightshade” value (nightshade; [1]) was 100 and the “Plant response rating, Nightshade” value (nightshade; [2]) was 100.
For `Fc1cccc(Oc2ncc(Cl)cn2)c1-n1cc(I)cn1` [Compound 179], the “Plant response rating, Sedge, Umbrella” value (sedge, umbrella; 31 g ai/ha) was 0, the “Plant response rating, Sedge, Umbrella” value (sedge, umbrella; 62 g ai/ha) was 0 and the “Plant response rating, Sedge, Umbrella” value (sedge, umbrella; 125 g ai/ha) was 40. For the same molecule, the “Plant response rating, Sedge, Umbrella” value (sedge, umbrella; 250 g ai/ha) was 80, the “Plant response rating, Corn” value (corn; [4]) was 0 and the “Corn plant response rating” value (corn; 16 g ai/ha) was 0. The “Corn plant response rating” value (corn; 62 g ai/ha) was 0, the “Plant response rating, Corn” value (corn; [1]) was 0 and the “Plant response rating, Soybean” value (soybean; [4]) was 0. For the same molecule, the “Soybean plant response rating” value (soybean) was 25, the “Plant response rating, Soybean” value (soybean; [1]) was 40 and the “Plant response rating, Velvetleaf” value (velvetleaf; [4]) was 20. The “Velvetleaf plant response rating” value (velvetleaf; 62 g ai/ha) was 100, the “Plant response rating, Velvetleaf” value (velvetleaf; [1]) was 100 and the “Plant response rating, Pigweed, Palmer” value (palmer pigweed; [4]) was 0. The “Pigweed, Palmer plant response rating” value (palmer pigweed; 62 g ai/ha) was 100, the “Plant response rating, Pigweed, Palmer” value (palmer pigweed; [1]) was 100 and the “Plant response rating, Crabgrass, Large” value (large (Lg) crabgrass; [4]) was 0. For the same molecule, the “Crabgrass, Large plant response rating” value (large (Lg) crabgrass; 16 g ai/ha) was 0, the “Crabgrass, Large plant response rating” value (large (Lg) crabgrass; 62 g ai/ha) was 75 and the “Plant response rating, Crabgrass, Large” value (large (Lg) crabgrass; [1]) was 98. The “Plant response rating, Panicum, Fall” value (fall panicum; [4]) was 0, the “Panicum, Fall plant response rating” value (fall panicum; 62 g ai/ha) was 75 and the “Plant response rating, Panicum, Fall” value (fall panicum; [1]) was 98. The “Plant response rating, Ragweed” value (ragweed; [4]) was 0, the “Ragweed plant response rating” value (ragweed; 62 g ai/ha) was 0 and the “Plant response rating, Ragweed” value (ragweed; [1]) was 0. For the same molecule, the “Plant response rating, Barnyardgrass” value (barnyardgrass; 8 g ai/ha, preemergence, scale 0 to 100, 0 is no effect, 100 is complete control) was 0, the “Barnyardgrass plant response rating” value (barnyardgrass; 16 g ai/ha, preemergence) was 0 and the “Barnyardgrass plant response rating” value (barnyardgrass; 62 g ai/ha, preemergence) was 10. The “Plant response rating, Barnyardgrass” value (barnyardgrass; [3]) was 20, the “Plant response rating, Dayflower, VA” value (dayflower; [4]) was 0 and the “Dayflower, VA plant response rating” value (dayflower; 16 g ai/ha) was 0. For the same molecule, the “Dayflower, VA plant response rating” value (dayflower; 62 g ai/ha) was 0, the “Plant response rating, Dayflower, VA” value (dayflower; [1]) was 60 and the “Plant response rating, Morningglory” value (morningglory; [4]) was 0. For the same molecule, the “Morningglory plant response rating” value (morningglory; 62 g ai/ha) was 10, the “Plant response rating, Morningglory” value (morningglory; [1]) was 30 and the “Plant response rating, Nightshade” value (nightshade; [4]) was 0. For the same molecule, the “Nightshade plant response rating” value (nightshade) was 80 and the “Plant response rating, Nightshade” value (nightshade; [1]) was 95.
